Measured values: patent publication US9388147B2 (Receptos, Inc., priority 2009, dated 2016)
pEC50: −log10 of the molar value. Like-named read-outs stand apart in the source and are kept apart here.

Key:
S1P1/EDG1 [1] = target: T1, S1P1/EDG1 (Homo sapiens, UniProt P21453); assay: S1P1 CRE-bla CHOK1 reporter assay, inhibition of Forskolin induced cAMP; type: cell-based
Procedure, shortened: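 Read-out is a FRET β-lactamase substrate (2 h, room temperature) after 4 h, 37 °C compound treatment under 2 μM Forskolin in stable S1P1-transfected CRE-bla CHO-K1 cells. Ten-point curves; non-linear regression gives EC50 for inhibition of Forskolin-stimulated cAMP.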

S1P1 R120A/E121A = target: T2, S1P1 R120A/E121A (Homo sapiens, UniProt P21453, E121A/R120A); assay: Phosphorylated-ERK1/2 In Cell Western, S1P1 R120A/E121A mutant in CHOK1 cells; type: cell-based
T2 construct: expressed in transfected cells; host or cells: CHOK1
T2 sequence (P21453 whole entry R120A/E121A): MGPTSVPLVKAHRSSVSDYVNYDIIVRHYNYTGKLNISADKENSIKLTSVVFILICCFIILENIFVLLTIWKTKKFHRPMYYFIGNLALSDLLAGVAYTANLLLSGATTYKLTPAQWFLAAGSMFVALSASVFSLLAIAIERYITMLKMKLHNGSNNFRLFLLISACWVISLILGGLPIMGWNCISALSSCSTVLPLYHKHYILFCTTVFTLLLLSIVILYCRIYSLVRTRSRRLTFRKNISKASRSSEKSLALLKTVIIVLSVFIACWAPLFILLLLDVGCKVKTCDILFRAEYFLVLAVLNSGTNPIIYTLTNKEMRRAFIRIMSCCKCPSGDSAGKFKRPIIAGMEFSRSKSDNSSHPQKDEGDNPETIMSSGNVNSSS
Description: (§1) A. Quick-change mutagenesis with PfuTurbo DNA polymerase (Stratagene) was conducted using S1P1/pcDNA3.1 (Missouri S&T cDNA Resource Centre) as the template. Primers were as follows: […]
(§2) PCR conditions were 15 cycles with the following parameters: 95° C. 30 sec, 58° C. 30 sec, 68° C. for 60 sec. All constructs were sequence verified.
(§3) CHOK1 cells were transfected using Fugene (Roche). Stably expressing mixed pools were selected with 2 mg/ml G418. Expression of functional S1P1/EDG1 receptor was confirmed by cell surface FACS with a S1P1 antibody (R&D Systems, clone 218713). Stable pools were seeded at 40,000 cells/well in a clear bottom 96-well tray, and incubated at 37° C. in 5% CO2 for 18 hrs. Cells were serum-starved in FreeStyle 293 medium (Invitrogen) for 4-6 h, then incubated for 5 min with a dose response of compound, in duplicate. Cells were fixed with 4% paraformaldehyde for 20 min, permeabilized with 0.1% Triton X-100 in PBS (4×5 min washes) and blocked for 1 h in Odyssey Blocking Buffer (LI-COR). All incubations were at room temperature. Cells were incubated for 18 h at 4° C. in Rabbit anti-Phospho-ERK1/2 (Cell Signaling #4377) and Mouse anti-ERK1/2 (Cell Signaling #9107) both diluted 1:800 in Odyssey Blocking Buffer. Plates were washed with 0.1% Tween-20 in PBS and then incubated with Odyssey Blocking Buffer containing IRDye 680-labeled goat anti-rabbit antibody (#926-32221; diluted 1/500) and IRDye 800CW-labeled goat anti-mouse antibody (#926-32210; diluted 1/1000). Plates were washed with 0.1% Tween-20 in PBS, all liquid was removed from the wells and the plates were scanned using a LICOR Odyssey scanner. The phospho-ERK1/2 signal was normalized to the ERK1/2 signal. Data was analyzed by non-linear regression using GraphPad Prism to determine the EC50 of binding.

S1P1 N101A = target: T3, S1P1 N101A (Homo sapiens, UniProt P21453, N101A); assay: Phosphorylated-ERK1/2 In Cell Western, S1P1 N101A mutant in CHOK1 cells; type: cell-based
T3 construct: expressed in transfected cells; host or cells: CHOK1
T3 sequence (P21453 whole entry N101A): as the sequence (P21453 whole entry R120A/E121A) above, with N101A, A120R, A121E counted along it
Description: as §1, §2, §3

S1P1 W269L = target: T4, S1P1 W269L (Homo sapiens, UniProt P21453, W269L); assay: Phosphorylated-ERK1/2 In Cell Western, S1P1 W269L mutant; type: cell-based
T4 construct: expressed in transfected cells; host or cells: CHOK1
T4 sequence (P21453 whole entry W269L): as the sequence (P21453 whole entry R120A/E121A) above, with A120R, A121E, W269L counted along it
Description: as §3, with “The phospho-ERK1/2 signal was normalized to the ERK1/2 signal.” left out, “binding. […]” for “binding.”

S1P1/EDG1 [2] = target: T1, S1P1/EDG1; assay: Phosphorylated-ERK1/2 In Cell Western, wild type S1P1 in CHOK1 cells; type: cell-based
Description: as §3, with “The phospho-ERK1/2 signal was normalized to the ERK1/2 signal.” left out

S1P2 = target: T5, S1P2 (Homo sapiens, UniProt O95136); assay: Specificity over other S1P receptors: S1P2 CRE-bla CHOK1 reporter assay; type: cell-based; conditions: S1P2 CRE-bla CHOK1, without Forskolin; read-out: S1P2 agonist value (EC50)
T5 construct: expressed in transfected cells; host or cells: CRE-bla CHOK1
T5 sequence (O95136 whole entry, species assumed): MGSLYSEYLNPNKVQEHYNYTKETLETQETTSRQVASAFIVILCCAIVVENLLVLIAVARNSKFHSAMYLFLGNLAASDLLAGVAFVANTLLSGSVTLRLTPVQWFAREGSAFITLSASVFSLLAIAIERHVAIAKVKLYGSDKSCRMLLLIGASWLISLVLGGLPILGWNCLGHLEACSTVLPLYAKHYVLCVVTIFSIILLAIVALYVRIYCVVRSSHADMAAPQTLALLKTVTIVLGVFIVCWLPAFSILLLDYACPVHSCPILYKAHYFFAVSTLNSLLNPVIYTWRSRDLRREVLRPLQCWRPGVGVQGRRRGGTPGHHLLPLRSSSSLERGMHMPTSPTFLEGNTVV
Description: (§4) Cells were seeded into 384-well black wall/clear bottom plates at 10^4 cells/well/19.5 μl assay media (DMEM-phenol free, 0.5% charcoal/dextran stripped serum, 2 mM glutamine, 0.1 mM NEAA, 1 mM Na-Pyruvate, 25 mM Hepes) and incubated for 18 hrs at 37° C. in 5% CO2. Dose response curves (10-point) were generated in 10 mM Hepes, 0.1% Pluronic F127, in the presence of Forskolin. Cells were treated with 0.5 μl compound in the presence of 2 μM Forskolin for 4 hrs at 37° C. The FRET-based β-lactamase fluorescent substrate (LiveBLAzer™-FRET B/G Loading Kit CC4-AM; Invitrogen) was prepared according to manufacturer's directions, and incubated with cells for 2 hrs at room temperature. Plates were read at Ex:410/Em:458 and Ex:410/Em:522, and the response ratio determined. Data was analyzed by non-linear regression to determine the EC50 for inhibition of Forskolin induced cAMP.
(§5) To assess compound specificity on other S1P receptors the following cell lines were used: S1P2 CRE-bla CHOK1, S1P3-Gα15 NFAT-bla HEK293T (Invitrogen), S1P4-bla TANGO U2OS (Invitrogen), S1P5-bla TANGO U2OS (Invitrogen). The same assay set up for S1P1 was used but without Forskolin. S1P4 and S1P5 assays were performed in FreeStyle Expression medium (Invitrogen). S1P5 cells were incubated for 48 hrs in prior to treatment with compound.

S1P3 = target: T6, S1P3 (Homo sapiens, UniProt Q99500); assay: Specificity over other S1P receptors: S1P3-Gα15 NFAT-bla HEK293T reporter assay; type: cell-based; conditions: without Forskolin, read-out: S1P3 agonist value (EC50)
T6 construct: host or cells: NFAT-bla HEK293T
T6 sequence (Q99500 whole entry): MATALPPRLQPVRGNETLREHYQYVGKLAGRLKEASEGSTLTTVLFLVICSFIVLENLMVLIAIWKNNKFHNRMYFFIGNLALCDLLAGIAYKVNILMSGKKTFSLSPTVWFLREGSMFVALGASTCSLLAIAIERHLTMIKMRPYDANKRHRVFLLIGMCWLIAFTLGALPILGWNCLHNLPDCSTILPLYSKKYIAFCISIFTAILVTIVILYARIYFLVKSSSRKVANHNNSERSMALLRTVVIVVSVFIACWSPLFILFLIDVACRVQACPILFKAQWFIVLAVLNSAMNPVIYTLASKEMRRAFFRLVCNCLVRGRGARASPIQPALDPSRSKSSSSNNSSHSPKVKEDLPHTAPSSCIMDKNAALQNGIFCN
Description: as §4, §5

S1P4 = target: T7, S1P4 (Homo sapiens, UniProt O95977); assay: Specificity over other S1P receptors: S1P4-bla TANGO U2OS assay; type: cell-based; conditions: read-out: S1P4 agonist value (EC50)
T7 construct: Tango fusion (own knowledge: protease cleavage site plus GAL4-VP16 transcription factor at the receptor's C-terminus); host or cells: U2OS (Tango -bla)
T7 sequence (O95977 1-384): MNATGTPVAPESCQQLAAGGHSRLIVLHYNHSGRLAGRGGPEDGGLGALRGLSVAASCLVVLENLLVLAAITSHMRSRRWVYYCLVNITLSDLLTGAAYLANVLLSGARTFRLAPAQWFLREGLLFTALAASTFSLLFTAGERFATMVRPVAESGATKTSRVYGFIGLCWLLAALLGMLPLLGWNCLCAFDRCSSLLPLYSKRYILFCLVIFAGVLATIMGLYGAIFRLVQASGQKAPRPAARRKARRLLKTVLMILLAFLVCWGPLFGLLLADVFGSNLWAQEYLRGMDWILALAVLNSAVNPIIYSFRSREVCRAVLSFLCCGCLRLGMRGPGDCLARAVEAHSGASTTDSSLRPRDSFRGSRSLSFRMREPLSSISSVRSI
Description: as §4, §5

S1P5 = target: T8, S1P5 (Homo sapiens, UniProt Q9H228); assay: Specificity over other S1P receptors: S1P5-bla TANGO U2OS assay; type: cell-based; conditions: read-out: S1P5 agonist value (EC50)
T8 construct: Tango fusion (own knowledge: protease cleavage site plus GAL4-VP16 transcription factor at the receptor's C-terminus); host or cells: U2OS (Tango -bla)
T8 sequence (Q9H228 whole entry, the tested form may be a part): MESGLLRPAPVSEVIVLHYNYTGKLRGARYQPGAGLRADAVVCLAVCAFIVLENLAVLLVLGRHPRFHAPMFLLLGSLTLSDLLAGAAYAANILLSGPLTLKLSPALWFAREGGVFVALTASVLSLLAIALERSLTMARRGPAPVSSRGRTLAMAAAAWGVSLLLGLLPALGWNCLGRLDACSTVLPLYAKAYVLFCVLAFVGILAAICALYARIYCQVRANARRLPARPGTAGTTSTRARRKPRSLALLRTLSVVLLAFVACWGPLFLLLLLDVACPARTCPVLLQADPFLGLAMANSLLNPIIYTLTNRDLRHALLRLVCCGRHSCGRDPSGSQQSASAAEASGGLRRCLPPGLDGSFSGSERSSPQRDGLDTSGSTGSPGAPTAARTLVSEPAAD
Description: as §4, §5

[3] = test system: CD4 or CD8 positive T cells; assay: Lymphopenia in mice; type: in vivo; conditions: female C57BL6 mice, 1 mg/kg oral gavage, area under the effect curve over 24 h
Description: In mice: Female C57BL6 mice (Simonsen Laboratories, Gilroy Calif.) were housed in an ALAAC accredited facility and the research was approved by the facilities Institutional Animal Care and Use Committee (IACUC). The animals were acclimated to the laboratory for at least 5 days prior to initiation of experiments. Mice (n=3/compound/time-point) were dosed by oral gavage with 1 mg/kg compound formulated in a vehicle consisting of 5% DMSO/5% Tween 20 and 90% 0.1N HCl. Control mice were dosed PO with the vehicle. Terminal whole blood samples were collected from isoflurane anesthetized mice by cardiac puncture into EDTA. Whole blood was incubated with rat anti-mouse CD16/CD32 (Mouse BD Fc Block, #553141), PE-Rat anti-mouse CD45R/B220 (BD #553089), APC-Cy7-Rat anti-mouse CD8a (BD #557654), and Alexa Fluor647-Rat anti-mouse CD4 (BD #557681) for 30 min on ice. Red blood cells were lysed using BD Pharm Lyse Lysing buffer (#555899) and white blood cells were analyzed by FACS. Lymphopenia was expressed as the % of white blood cells that were CD4 or CD8 positive T cells. The overall lymphopenia response over 24 h was estimated by calculating the area under the effect curve (AUEC) using the linear trapezoidal rule.

[4] = agonist activity range, S1P1 CRE-bla CHOK1, 2 μM Forskolin, read-out: S1P1 ACTIVITY

T1 sequence (P21453 whole entry): as the sequence (P21453 whole entry R120A/E121A) above, with A120R, A121E counted along it

Structure (SMILES)	pEC50 (S1P1/EDG1 [1]; [4])	Effect of mutation on binding of compound (in words) (S1P1 R120A/E121A; S1P1 R120A/E121A)	Fold change in EC50 compared to wild type S1P1 (S1P1 R120A/E121A; S1P1 variant R120A/E121A, phospho-ERK1/2)	Effect of mutation on binding of compound (in words) (S1P1 N101A; S1P1 N101A)	Fold change in EC50 compared to wild type S1P1 (S1P1 N101A; S1P1 variant N101A, phospho-ERK1/2)	Effect of mutation on binding of compound (in words) (S1P1 W269L)	Phosphorylation of ERK1/2 by S1P1 agonist (in words) (S1P1/EDG1 [2])	pEC50 (S1P1/EDG1 [1]; S1P1 CRE-bla CHOK1, with Forskolin, read-out: S1P1 agonist value (EC50))	pEC50 (S1P2)	pEC50 (S1P3)	pEC50 (S1P4)	pEC50 (S1P5)	Mouse Lymphopenia (AUEC) [3]
CC(C)Oc1ccc(-c2nc(-c3cccc4c3CCC4NCCC(=O)O)no2)cc1C#N (racemic) [Compound 38]	> 10.30	diminishes binding	11	had no effect on binding	2	abolishes binding	induce phosphorylation of ERK1/2						
CCOc1ccc(-c2nc(-c3cccc4c3CCC4O)no2)cc1OCC (racemic) [Compound 254, (+/−)-4-(5-(3,4,diethoxyphenyl)-1,2,4-oxadiazol-3-yl)-2,3-dihydro-1H-inden-1-ol, reference compound]	9.30 to 10.30							9.80	5.26	5.28	5.26	7.25	84
